Measurements: patent US5658906A, “Cysteine protease and serine protease inhibitors” (Cephalon, Inc., priority 1996, dated 1997)

molecular target: T1, Cathepsin L (Homo sapiens, UniProt P07711); assay: Inhibition and rate of inactivation of cathepsin L (Cbz-Phe-Arg-AMC hydrolysis); format: biochemical; details: pH 6.0, 0.006 mM substrate, read-out: k2 (second order rate constant of inactivation), B = Cathepsin L
T1 construct: purchased Calbiochem 219402
Protocol: Additionally, the order of reagents added to the plate was altered because both enzymes are constitutively active. Following inhibitor addition to the plates appropriate 2× concentrated stock dilutions of the enzyme preparations were made in assay buffer and 100 ul added to each well. The assay was initiated by addition of 100 ul of 2× concentrated stock dilution of substrate in assay buffer. Substrate hydrolysis was monitored using a Fluroskan II (ex=390 nm; em=460 nm).
Inhibition of enzyme activity was calculated as the percent decrease in the rate of substrate hydrolysis in the presence of inhibitor (.upsilon.i) relative to the rate in its absence (.upsilon.o). Comparison between .upsilon.o and .upsilon.i was made within the linear range for substrate hydrolysis. For screening, compounds were tested at 10 μM. Compounds having ≥50% inhibition at 10 μM were considered active. Apparent second order rate constants were determined from analysis of reaction progress curves under pseudo-first order conditions. Each determination represents the mean of three or more independent single cuvette analyses continually monitored via a Perkin-Elmer LS50B spectrofluorimeter. The rate of inhibition of hydrolysis was obtained by fitting the curve to the exponential equation (1):
y=Ae^-k.spsb.obs·t +B (1)
where y (Pt) is the product formed at time t. A and B are constants. A, the amplitude of the reaction, is given by [Po -P.varies. ] and B (=P.varies.) is the maximal product formed when the reaction is […]. This was corrected for the presence of equation (2): […]

T1 sequence (P07711 114-333): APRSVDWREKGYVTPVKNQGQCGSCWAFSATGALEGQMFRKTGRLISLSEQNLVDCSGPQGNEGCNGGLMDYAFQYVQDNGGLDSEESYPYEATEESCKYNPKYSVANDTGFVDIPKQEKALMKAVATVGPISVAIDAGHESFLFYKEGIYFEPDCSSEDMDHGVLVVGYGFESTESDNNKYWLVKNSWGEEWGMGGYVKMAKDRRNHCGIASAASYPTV

| kinact/KI [M⁻¹ s⁻¹] | Structure (SMILES) |
| --- | --- |
| 40000 | CC(C)C[C@H](NC(=O)OCc1ccccc1)C(=O)N[C@@H](Cc1ccccc1)C(=O)COn1nnc2cccnc21 [Example 6, 3-[N-[N-Benzyloxycarbonyl-L-leucyl]-3S-4-phenyl-3-amino-2-oxobutyloxy]-3H-triazolo[4,5-b]pyridine] |
| 3e+06 | CC[C@H](NC(=O)[C@H](CC(C)C)NC(=O)OCc1ccccc1)C(=O)COn1nnc2ccccc21 [Example 5, 1-[N-[N-Benzyloxycarbonyl-L-leucyl]-3S-3-amino-2-oxopentyloxy] benzotriazole] |
| 70000 | CC(C)C[C@H](NC(=O)OCc1ccccc1)C(=O)N[C@@H](Cc1ccccc1)C(=O)COn1nnc2ccccc2c1=O [Example 28, 1-[N-[N-Benzyloxycarbonyl-L-leucyl]-3S-4-phenyl-3-amino-2-oxobutyloxy]-3-benzotriazin-4-one] |
| 100000 | CC(C)C[C@H](NC(=O)OCc1ccccc1)C(=O)N[C@@H](Cc1ccccc1)C(=O)COn1nnc2ccccc21 [Example 3, 1-[N-[N-Benzyloxycarbonyl-L-leucyl]-3S-4-phenyl-3-amino-2-oxobutyloxy]benzotriazole] |
